The text below walks through data of ChEMBL document CHEMBL5614463, “Discovery of Imidazo[1,2-a]pyrazine Derivatives as Potent ENPP1 Inhibitors” (J Med Chem, 2024).

Each structure is given as a SMILES string.

For assay [1], the target named is Autotaxin (Mus musculus, UniProt Q9R1E6). In words: Inhibition of N-terminal recombinant mouse ENPP2 […] extracted from HEK293F cells using p-Nph-5'-TMP as substrate by absorbance based analysis. The class given is cell-free.
Assay [2] addresses T1, Ectonucleotide pyrophosphatase/phosphodiesterase family member 3 (Homo sapiens, UniProt O14638).
T1 sequence (O14638 whole entry): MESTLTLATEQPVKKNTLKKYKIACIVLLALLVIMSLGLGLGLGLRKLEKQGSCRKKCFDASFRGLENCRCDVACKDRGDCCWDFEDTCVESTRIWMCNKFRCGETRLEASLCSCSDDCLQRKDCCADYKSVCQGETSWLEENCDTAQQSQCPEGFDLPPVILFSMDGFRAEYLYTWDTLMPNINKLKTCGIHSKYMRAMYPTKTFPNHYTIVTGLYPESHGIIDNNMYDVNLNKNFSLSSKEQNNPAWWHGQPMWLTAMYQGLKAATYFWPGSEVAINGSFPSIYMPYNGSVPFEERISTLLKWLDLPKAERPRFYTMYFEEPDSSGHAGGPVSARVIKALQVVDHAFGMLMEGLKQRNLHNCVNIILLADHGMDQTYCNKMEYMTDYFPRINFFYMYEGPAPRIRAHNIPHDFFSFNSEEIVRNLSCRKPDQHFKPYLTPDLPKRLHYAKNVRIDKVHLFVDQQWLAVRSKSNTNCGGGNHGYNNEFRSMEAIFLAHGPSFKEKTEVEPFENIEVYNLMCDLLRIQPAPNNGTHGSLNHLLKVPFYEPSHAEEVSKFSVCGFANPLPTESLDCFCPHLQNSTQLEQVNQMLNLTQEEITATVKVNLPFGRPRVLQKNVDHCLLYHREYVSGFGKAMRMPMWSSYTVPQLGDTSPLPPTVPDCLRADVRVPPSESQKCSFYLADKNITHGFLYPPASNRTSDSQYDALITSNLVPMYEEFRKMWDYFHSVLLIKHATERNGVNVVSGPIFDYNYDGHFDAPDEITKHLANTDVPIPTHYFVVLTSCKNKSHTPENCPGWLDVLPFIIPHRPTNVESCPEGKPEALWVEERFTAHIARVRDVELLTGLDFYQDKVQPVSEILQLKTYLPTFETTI
Kind of assay: Inhibition of recombinant human ENPP3 using p-Nph-5'-TMP as substrate by absorbance based analysis.

`COc1cccc(F)c1-c1nc(C(=O)Nc2cc(F)ccc2N2CCC(NS(N)(=O)=O)CC2)cn2ccnc12`: the IC50 (commonly the point on the concentration scale where inhibition reaches its midpoint) in assay [1] was > 10 µM; in assay [2] it was 2.52 µM.
The corresponding values for `COc1ccc2c(-c3ccc(CNS(N)(=O)=O)cc3)ccnc2c1` are > 10 µM and 1.27 µM.
